# Assay results reported in patent US20250353891A1 (MEDIMMUNE LIMITED, priority 2022, published 2025).
# Starred links: 1 amine or outer side, 2 acyl side, 3 side chain; linkers in the order of their positions; H or OH if unused. Non-standard residues stand in square brackets, D forms with d. Residues, ends and D or L forms follow the SMILES beside them. Groups on a side chain read outwards from the residue. *: point of attachment. C18 diacid = O=C(O)CCCCCCCCCCCCCCCCC(=O)*; γGlu = O=C(O)[C@H](CCC(=O)[*:2])N[*:1]; αMeF = C[C@](N)(Cc1ccccc1)C(=O)O; AEEA = NCCOCCOCC(=O)O; Aib = CC(C)(N)C(=O)O
# What was measured:
# [1] = biological target: human GLP-1 receptor (hGLP-1R) (Homo sapiens, UniProt P43220); test: cAMP production (HTRF) in CHO cells expressing hGLP-1R; format: cell-based; parameters: expressed in transfected cells; details: for % Relative Potency Ratio: % GLP-1R activity relative to GLP-1 / % GlucR activity relative to glucagon; for EC50: cAMP, CHO cells, 0.1% BSA, geometric mean, read-out: hGLP-1R EC50
# Sequence of human GLP-1 receptor (hGLP-1R) (P43220 24-463): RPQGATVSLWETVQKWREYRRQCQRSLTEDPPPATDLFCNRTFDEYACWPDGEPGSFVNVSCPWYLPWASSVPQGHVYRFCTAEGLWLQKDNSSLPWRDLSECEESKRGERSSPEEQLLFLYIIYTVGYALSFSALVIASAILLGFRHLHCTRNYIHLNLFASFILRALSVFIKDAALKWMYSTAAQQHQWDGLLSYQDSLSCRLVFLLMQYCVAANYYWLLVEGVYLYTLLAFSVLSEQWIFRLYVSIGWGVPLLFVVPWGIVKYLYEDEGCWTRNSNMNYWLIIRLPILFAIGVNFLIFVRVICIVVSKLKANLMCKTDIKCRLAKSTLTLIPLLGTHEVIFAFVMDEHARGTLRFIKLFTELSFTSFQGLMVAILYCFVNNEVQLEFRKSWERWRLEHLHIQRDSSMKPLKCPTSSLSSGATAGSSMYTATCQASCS
# Outline: (§1)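 Read-out: HTRF cAMP (anti-cAMP cryptate donor, cAMP-d2 acceptor in conjugate/lysis buffer), converted to % Delta F and fitted by 4-parameter logistic for EC50. Cell densities were 1×10^5 cells/mL (hGLP-1R) or 2×10^5 cells/mL (hGCGR). Stimulation lasted 30 min at room temperature.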
# [2] = biological target: human glucagon receptor (hGCGR) (Homo sapiens, UniProt P47871); test: cAMP production (HTRF) in CHO cells expressing hGCGR; format: cell-based; parameters: expressed in transfected cells; details: cAMP, CHO cells, 0.1% BSA, geometric mean; read-out: hGluc-R EC50
# Sequence of human glucagon receptor (hGCGR) (P47871 26-477): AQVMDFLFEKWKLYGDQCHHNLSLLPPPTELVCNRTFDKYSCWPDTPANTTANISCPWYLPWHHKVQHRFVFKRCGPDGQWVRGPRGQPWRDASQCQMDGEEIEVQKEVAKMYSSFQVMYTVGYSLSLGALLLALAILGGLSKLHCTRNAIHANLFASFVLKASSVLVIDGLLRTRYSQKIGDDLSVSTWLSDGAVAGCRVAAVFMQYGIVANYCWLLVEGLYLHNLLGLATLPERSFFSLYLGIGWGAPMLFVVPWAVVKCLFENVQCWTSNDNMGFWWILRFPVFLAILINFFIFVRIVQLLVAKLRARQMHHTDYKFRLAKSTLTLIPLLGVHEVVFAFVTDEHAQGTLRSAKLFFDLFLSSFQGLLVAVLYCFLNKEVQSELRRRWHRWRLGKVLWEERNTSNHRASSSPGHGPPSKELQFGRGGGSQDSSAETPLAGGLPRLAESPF
# Outline: as §1
% Relative Potency Ratio [1],EC50 [1],EC50 [2],Compound
2.4,0.0718 nM,0.0857 nM,CC[C@H](C)[C@H](NC(=O)[C@H](CO)NC(=O)[C@H](CCCCNC(=O)COCCOCCNC(=O)COCCOCCNC(=O)CC[C@H](NC(=O)CCCCCCCCCCCCCCCCC(=O)O)C(=O)O)NC(=O)[C@@H](NC(=O)[C@](C)(Cc1ccccc1)NC(=O)[C@H](CC(=O)O)NC(=O)[C@H](CCC(N)=O)NC(=O)[C@H](C)NC(=O)[C@H](C)NC(=O)[C@H](CCCNC(=N)N)NC(=O)[C@H](CO)NC(=O)[C@H](CC(=O)O)NC(=O)[C@H](CC(C)C)NC(=O)[C@](C)(Cc1ccccc1)NC(=O)[C@H](CCCCN)NC(=O)[C@H](CO)NC(=O)[C@@H](NC(=O)[C@H](CC(=O)O)NC(=O)[C@H](CO)NC(=O)[C@@H](NC(=O)[C@](C)(Cc1ccccc1)NC(=O)[C@H](CO)NC(=O)CNC(=O)[C@H](Cc1c[nH]cn1)NC(=O)C(C)(C)NC(=O)[C@@H](N)Cc1c[nH]cn1)[C@@H](C)O)C(C)C)C(C)C)C(=O)N[C@@H](C)C(=O)N[C@@H](CC(N)=O)C(=O)N[C@H](C(N)=O)[C@@H](C)O [Peptide 379] (H-H[Aib]HGS[αMeF]TSDVSK[αMeF]LDSRAAQD[αMeF]VK([AEEA-AEEA-γGlu-C18 diacid])SIANT-NH2)
14.9,0.174 nM,1.31 nM,CC[C@H](C)[C@H](NC(=O)[C@H](CO)NC(=O)[C@H](CCCCNC(=O)COCCOCCNC(=O)COCCOCCNC(=O)CC[C@H](NC(=O)CC[C@H](NC(=O)CCCCCCCCCCCCCCCCC(=O)O)C(=O)O)C(=O)O)NC(=O)[C@@H](NC(=O)[C@H](Cc1ccccc1)NC(=O)[C@H](CC(=O)O)NC(=O)[C@H](CCC(N)=O)NC(=O)[C@H](C)NC(=O)[C@H](C)NC(=O)[C@H](CCCNC(=N)N)NC(=O)[C@H](CO)NC(=O)[C@H](CC(=O)O)NC(=O)[C@H](CC(C)C)NC(=O)[C@](C)(Cc1ccccc1)NC(=O)[C@H](CCCCN)NC(=O)[C@H](CO)NC(=O)[C@@H](NC(=O)[C@H](CC(=O)O)NC(=O)[C@H](CO)NC(=O)[C@@H](NC(=O)[C@](C)(Cc1ccccc1)NC(=O)[C@H](CO)NC(=O)CNC(=O)[C@H](Cc1c[nH]cn1)NC(=O)C(C)(C)NC(=O)[C@@H](N)Cc1c[nH]cn1)[C@@H](C)O)C(C)C)C(C)C)C(=O)N[C@@H](C)C(=O)N[C@@H](CC(N)=O)C(=O)N[C@H](C(=O)NCC(=O)NCC(N)=O)[C@@H](C)O [Peptide 381] (H-H[Aib]HGS[αMeF]TSDVSK[αMeF]LDSRAAQDFVK([AEEA-AEEA-γGlu-γGlu-C18 diacid])SIANTGG-NH2; N-terminus assumed)
11.6,0.056 nM,0.329 nM,"CC[C@H](C)[C@H](NC(=O)[C@H](CO)NC(=O)[C@H](CCCCNC(=O)COCCOCCNC(=O)COCCOCCNC(=O)CC[C@H](NC(=O)CC[C@H](NC(=O)CCCCCCCCCCCCCCCCC(=O)O)C(=O)O)C(=O)O)NC(=O)[C@@H](NC(=O)[C@H](Cc1ccccc1)NC(=O)[C@H](CC(=O)O)NC(=O)[C@H](CCC(N)=O)NC(=O)[C@H](C)NC(=O)C(C)(C)NC(=O)[C@H](CCCNC(=N)N)NC(=O)[C@H](CO)NC(=O)[C@H](CC(=O)O)NC(=O)[C@H](CC(C)C)NC(=O)[C@](C)(Cc1ccccc1)NC(=O)[C@H](CCCCN)NC(=O)[C@H](CO)NC(=O)[C@@H](NC(=O)[C@H](CC(=O)O)NC(=O)[C@H](CO)NC(=O)[C@@H](NC(=O)[C@](C)(Cc1ccccc1)NC(=O)[C@H](CO)NC(=O)CNC(=O)[C@H](Cc1c[nH]cn1)NC(=O)C(C)(C)NC(=O)[C@@H](N)Cc1c[nH]cn1)[C@@H](C)O)C(C)C)C(C)C)C(=O)N[C@@H](C)C(=O)N[C@@H](CC(N)=O)C(=O)N[C@H](C(=O)NCC(=O)NCC(N)=O)[C@@H](C)O [Peptide 382, H(Aib)HGS(αMePhe)TSDVSK(αMePhe)LDSR(Aib)AQDFVK(O2OC-O2OC-γE-γE-C18diacid)24SIANTGG-amide] (H-H[Aib]HGS[αMeF]TSDVSK[αMeF]LDSR[Aib]AQDFVK([AEEA-AEEA-γGlu-γGlu-C18 diacid])SIANTGG-NH2; N-terminus assumed)"
